Results taken from ChEMBL document CHEMBL5444388, “Affinity Phenotypic Cellular Literature for EUbOPEN Chemogenomic Library” (2024).
One block for each compound: values may come before it. Where a SMILES comes first, the peptide text is derived from it. [ ]: non-standard residue; d: D form. Arg(Me) = CNC(=N)NCCC[C@H](N)C(=O)O; d3Pal = N[C@H](Cc1cccnc1)C(=O)O; azaGly = NNC(=O)O

Assays:
[1] = target: Inhibitor of nuclear factor kappa-B kinase subunit beta (Homo sapiens, UniProt O14920); experiment: Affinity Phenotypic Cellular interaction: (Inhibition of expression of ICAM-1 in HeLa cells) EUB0001492b IKBKB; type: functional, cell-based; design: mode of action Inhibitor, recommended concentration 1 uM
[2] = target: T1, RAF proto-oncogene serine/threonine-protein kinase (Homo sapiens, UniProt P04049); experiment: Affinity Phenotypic Cellular interaction: (Western blot assay (phosphorylation of ERK in PREC cells expressing BRAF/RAS wt)) EUB0000655a RAF1; type: functional, cell-based; design: mode of action Inhibitor, recommended concentration 1 uM
[3] = target: T1, RAF proto-oncogene serine/threonine-protein kinase; experiment: Affinity Phenotypic Cellular interaction: (Western blot assay (phosphorylation of ERK in HT-1080 cells expressing BRAF wt/N-Ras2(Q61K))) EUB0000655a RAF1; type: functional, cell-based; design: mode of action Inhibitor, recommended concentration 1 uM
[4] = target: T1, RAF proto-oncogene serine/threonine-protein kinase; experiment: Affinity Phenotypic Cellular interaction: (Western blot assay (phosphorylation of ERK in HCT-116 cells expressing BRAF wt/K-Ras2(G13D))) EUB0000655a RAF1; type: functional, cell-based; design: mode of action Inhibitor, recommended concentration 1 uM
[5] = target: T1, RAF proto-oncogene serine/threonine-protein kinase; experiment: Affinity Phenotypic Cellular interaction: (Western blot assay (phosphorylation of ERK in […] cells expressing BRAF V600E/RAS wt)) EUB0000655a RAF1; type: functional, cell-based, COLO 205; design: mode of action Inhibitor, recommended concentration 1 uM
[6] = target: T1, RAF proto-oncogene serine/threonine-protein kinase; experiment: Affinity Phenotypic Cellular interaction: (Western blot assay (phosphorylation of ERK in MALME-3M cells expressing BRAF V600E/RAS wt)) EUB0000655a RAF1; type: functional, cell-based; design: mode of action Inhibitor, recommended concentration 1 uM
[7] = target: T1, RAF proto-oncogene serine/threonine-protein kinase; experiment: Affinity Phenotypic Cellular interaction: (Western blot assay (phosphorylation of ERK in HT-29 cells expressing BRAF V600E/RAS wt)) EUB0000655a RAF1; type: functional, cell-based; design: mode of action Inhibitor, recommended concentration 1 uM
[8] = target: T1, RAF proto-oncogene serine/threonine-protein kinase; experiment: Affinity Phenotypic Cellular interaction: (Western blot assay (phosphorylation of ERK in HFF cells expressing BRAF/RAS wt)) EUB0000655a RAF1; type: functional, cell-based; design: mode of action Inhibitor, recommended concentration 1 uM
[9] = target: T1, RAF proto-oncogene serine/threonine-protein kinase; experiment: Affinity Phenotypic Cellular interaction: (Western blot assay (phosphorylation of ERK in HMEC cells expressing BRAF/RAS wt)) EUB0000655a RAF1; type: functional, cell-based; design: mode of action Inhibitor, recommended concentration 1 uM
[10] = target: T1, RAF proto-oncogene serine/threonine-protein kinase; experiment: Affinity Phenotypic Cellular interaction: (Western blot assay (phosphorylation of ERK in SKMEL2 cells expressing BRAF wt/N-Ras2(Q61R))) EUB0000655a RAF1; type: functional, cell-based, SK-MEL-2; design: mode of action Inhibitor, recommended concentration 1 uM
[11] = target: T1, RAF proto-oncogene serine/threonine-protein kinase; experiment: Affinity Phenotypic Cellular interaction: (Western blot assay (phosphorylation of ERK in A375P cells expressing BRAF V600E/RAS wt)) EUB0000655a RAF1; type: functional, cell-based; design: mode of action Inhibitor, recommended concentration 1 uM
[12] = target: T2, Casein kinase I isoform delta (Homo sapiens, UniProt P48730); type: functional
[13] = target: T3, Casein kinase I isoform alpha (Homo sapiens, UniProt P48729); experiment: Affinity Phenotypic Cellular interaction: (Western Blot assay (inhibition of CSNK1D/E-mediated phosphorylation of DVL3, analyzed by change in phosphorylation-dependent mobility shift)) EUB0001205a CSNK1A1; type: functional; design: mode of action Inhibitor, recommended concentration 1 uM
[14] = target: T4, Casein kinase I isoform epsilon (Homo sapiens, UniProt P49674); type: functional
[15] = target: T4, Casein kinase I isoform epsilon; experiment: Affinity Phenotypic Cellular interaction: (Western Blot assay (inhibition of CSNK1D/E-mediated phosphorylation of DVL3, analyzed by change in phosphorylation-dependent mobility shift)) EUB0001205a CSNK1E; type: functional; design: mode of action Inhibitor, recommended concentration 1 uM
[16] = target: T3, Casein kinase I isoform alpha; type: functional
[17] = target: T2, Casein kinase I isoform delta; experiment: Affinity Phenotypic Cellular interaction: (Western Blot assay (inhibition of CSNK1D/E-mediated phosphorylation of DVL3, analyzed by change in phosphorylation-dependent mobility shift)) EUB0001205a CSNK1D; type: functional; design: mode of action Inhibitor, recommended concentration 1 uM
[18] = target: T3, Casein kinase I isoform alpha; type: functional, cell-based, T-REx-293
[19] = target: Mitotic checkpoint serine/threonine-protein kinase BUB1 (Homo sapiens, UniProt O43683); type: functional, cell-based, HeLa
[20] = target: Cyclin-dependent kinase 13 (Homo sapiens, UniProt Q14004); experiment: Affinity Phenotypic Cellular interaction: (In-Cell western blot (using MDA-MB-231 cells)) EUB0001632a CDK13; type: functional, cell-based; design: mode of action Inhibitor, recommended concentration 1 uM
[21] = target: T5, Cyclin-dependent kinase 8 (Homo sapiens, UniProt P49336); experiment: Affinity Phenotypic Cellular interaction: (Reporter-based luciferase assay (in COLO205 (APC mutant) bearing activating WNT-pathway mutations)) EUB0001623a CDK8; type: functional, cell-based; design: mode of action Inhibitor, recommended concentration 100 nM; settings: colo 205
[22] = target: T5, Cyclin-dependent kinase 8; experiment: Affinity Phenotypic Cellular interaction: (Reporter-based luciferase assay (in LS174T cell line (xcexb2-catenin mutant) bearing activating WNT-pathway mutations)) EUB0001623a CDK8; type: functional; design: mode of action Inhibitor, recommended concentration 100 nM
[23] = target: T5, Cyclin-dependent kinase 8; experiment: Affinity Phenotypic Cellular interaction: (Reporter-based luciferase assay (in PA-1 cell line bearing activating WNT-pathway mutations)) EUB0001623a CDK8; type: functional; design: mode of action Inhibitor, recommended concentration 100 nM
[24] = target: Interleukin-1 receptor-associated kinase 4 (Homo sapiens, UniProt Q9NWZ3); experiment: Affinity Phenotypic Cellular interaction: (R848-induced IL-6 production in human whole blood) EUB0001558a IRAK4; type: functional, tissue-based; design: mode of action Inhibitor, recommended concentration 1 uM
KiSS-1 receptor = KiSS-1 receptor (Homo sapiens, UniProt Q969F8); experiment: Affinity Phenotypic Cellular interaction: (Agonist activity for hGPR54 (C-terminal ethyl amide)) EUB0001072a KISS1R; type: functional; design: mode of action Negative control for KISS1-305, recommended concentration 1 uM
Activin receptor type-1 = Activin receptor type-1 (Homo sapiens, UniProt Q04771); experiment: Affinity Phenotypic Cellular interaction: (Western Blot (inhibition of ALK2 catalysed phosphorylation of SMAD1/5/8, BMP branch signalling)) EUB0001184b ACVRL1; type: functional; design: mode of action Inhibitor, recommended concentration 1 uM
[25] = target: T6, Leucine-rich repeat serine/threonine-protein kinase 2 (Homo sapiens, UniProt Q5S007, G2019S); type: functional, subcellular, Brain, lysate
[26] = target: T6, Leucine-rich repeat serine/threonine-protein kinase 2; type: functional, subcellular, Brain, lysate; remark: listed apart in the source

T5 sequence (P49336 whole entry, looked up, change not shown): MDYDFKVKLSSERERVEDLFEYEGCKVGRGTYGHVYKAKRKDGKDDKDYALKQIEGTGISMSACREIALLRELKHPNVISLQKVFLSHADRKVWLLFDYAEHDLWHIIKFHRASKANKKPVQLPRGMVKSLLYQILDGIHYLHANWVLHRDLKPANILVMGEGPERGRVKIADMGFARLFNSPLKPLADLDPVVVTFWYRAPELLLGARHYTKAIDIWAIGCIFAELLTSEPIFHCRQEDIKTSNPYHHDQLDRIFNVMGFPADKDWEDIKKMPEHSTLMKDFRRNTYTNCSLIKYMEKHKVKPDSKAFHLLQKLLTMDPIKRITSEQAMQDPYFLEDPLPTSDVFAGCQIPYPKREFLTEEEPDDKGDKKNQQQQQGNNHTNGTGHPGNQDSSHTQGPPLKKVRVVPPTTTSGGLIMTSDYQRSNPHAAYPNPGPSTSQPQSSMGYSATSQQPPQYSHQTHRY
T1 sequence (P04049 whole entry): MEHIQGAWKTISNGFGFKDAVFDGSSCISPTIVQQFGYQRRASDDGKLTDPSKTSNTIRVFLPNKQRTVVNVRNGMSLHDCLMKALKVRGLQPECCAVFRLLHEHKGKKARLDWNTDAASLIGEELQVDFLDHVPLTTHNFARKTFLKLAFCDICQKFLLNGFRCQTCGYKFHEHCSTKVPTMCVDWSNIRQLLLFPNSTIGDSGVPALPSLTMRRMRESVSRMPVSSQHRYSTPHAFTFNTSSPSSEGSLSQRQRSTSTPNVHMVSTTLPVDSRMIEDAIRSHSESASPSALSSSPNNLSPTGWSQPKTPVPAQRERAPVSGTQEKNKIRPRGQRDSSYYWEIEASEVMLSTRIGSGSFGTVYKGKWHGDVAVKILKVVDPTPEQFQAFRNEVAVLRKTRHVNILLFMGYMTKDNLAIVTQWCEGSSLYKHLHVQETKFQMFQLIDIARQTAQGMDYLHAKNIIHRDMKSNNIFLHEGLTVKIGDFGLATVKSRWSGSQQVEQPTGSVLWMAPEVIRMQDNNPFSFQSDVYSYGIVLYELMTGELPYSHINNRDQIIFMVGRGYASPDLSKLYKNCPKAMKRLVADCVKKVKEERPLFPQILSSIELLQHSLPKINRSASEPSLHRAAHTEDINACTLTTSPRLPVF
T3 sequence (P48729 whole entry, canonical isoform): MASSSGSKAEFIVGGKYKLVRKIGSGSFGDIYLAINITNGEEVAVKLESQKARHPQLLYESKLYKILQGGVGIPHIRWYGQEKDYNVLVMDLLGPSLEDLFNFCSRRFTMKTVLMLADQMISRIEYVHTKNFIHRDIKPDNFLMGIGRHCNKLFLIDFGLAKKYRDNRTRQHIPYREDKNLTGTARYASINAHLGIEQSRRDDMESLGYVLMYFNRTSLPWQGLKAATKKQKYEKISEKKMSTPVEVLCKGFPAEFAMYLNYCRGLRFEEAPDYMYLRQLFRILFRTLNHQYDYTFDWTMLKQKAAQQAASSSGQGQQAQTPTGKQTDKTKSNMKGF
T4 sequence (P49674 whole entry, canonical isoform): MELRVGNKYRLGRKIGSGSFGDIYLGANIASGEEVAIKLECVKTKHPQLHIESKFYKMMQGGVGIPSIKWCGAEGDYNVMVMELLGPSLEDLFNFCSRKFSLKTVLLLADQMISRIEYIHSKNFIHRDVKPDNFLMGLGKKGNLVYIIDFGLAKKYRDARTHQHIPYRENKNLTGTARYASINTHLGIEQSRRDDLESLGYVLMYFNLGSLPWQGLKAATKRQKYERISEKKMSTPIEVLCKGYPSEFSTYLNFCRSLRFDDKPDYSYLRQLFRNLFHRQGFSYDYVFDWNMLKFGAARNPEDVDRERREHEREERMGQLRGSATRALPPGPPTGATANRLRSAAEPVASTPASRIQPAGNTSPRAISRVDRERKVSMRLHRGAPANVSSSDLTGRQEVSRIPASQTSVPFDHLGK
T2 sequence (P48730 whole entry, canonical isoform): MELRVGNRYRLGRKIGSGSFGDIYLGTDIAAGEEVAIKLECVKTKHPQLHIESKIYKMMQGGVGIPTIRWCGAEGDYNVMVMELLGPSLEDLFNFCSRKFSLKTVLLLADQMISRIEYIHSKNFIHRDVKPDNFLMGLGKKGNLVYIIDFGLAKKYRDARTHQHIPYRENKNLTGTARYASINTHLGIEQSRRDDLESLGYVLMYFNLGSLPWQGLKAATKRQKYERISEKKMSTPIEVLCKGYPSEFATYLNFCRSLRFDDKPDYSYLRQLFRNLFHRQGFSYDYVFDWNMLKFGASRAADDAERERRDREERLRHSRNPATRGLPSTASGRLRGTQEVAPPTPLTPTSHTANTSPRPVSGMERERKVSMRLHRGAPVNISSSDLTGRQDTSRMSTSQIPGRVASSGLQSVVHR
T6 sequence (Q5S007 whole entry G2019S): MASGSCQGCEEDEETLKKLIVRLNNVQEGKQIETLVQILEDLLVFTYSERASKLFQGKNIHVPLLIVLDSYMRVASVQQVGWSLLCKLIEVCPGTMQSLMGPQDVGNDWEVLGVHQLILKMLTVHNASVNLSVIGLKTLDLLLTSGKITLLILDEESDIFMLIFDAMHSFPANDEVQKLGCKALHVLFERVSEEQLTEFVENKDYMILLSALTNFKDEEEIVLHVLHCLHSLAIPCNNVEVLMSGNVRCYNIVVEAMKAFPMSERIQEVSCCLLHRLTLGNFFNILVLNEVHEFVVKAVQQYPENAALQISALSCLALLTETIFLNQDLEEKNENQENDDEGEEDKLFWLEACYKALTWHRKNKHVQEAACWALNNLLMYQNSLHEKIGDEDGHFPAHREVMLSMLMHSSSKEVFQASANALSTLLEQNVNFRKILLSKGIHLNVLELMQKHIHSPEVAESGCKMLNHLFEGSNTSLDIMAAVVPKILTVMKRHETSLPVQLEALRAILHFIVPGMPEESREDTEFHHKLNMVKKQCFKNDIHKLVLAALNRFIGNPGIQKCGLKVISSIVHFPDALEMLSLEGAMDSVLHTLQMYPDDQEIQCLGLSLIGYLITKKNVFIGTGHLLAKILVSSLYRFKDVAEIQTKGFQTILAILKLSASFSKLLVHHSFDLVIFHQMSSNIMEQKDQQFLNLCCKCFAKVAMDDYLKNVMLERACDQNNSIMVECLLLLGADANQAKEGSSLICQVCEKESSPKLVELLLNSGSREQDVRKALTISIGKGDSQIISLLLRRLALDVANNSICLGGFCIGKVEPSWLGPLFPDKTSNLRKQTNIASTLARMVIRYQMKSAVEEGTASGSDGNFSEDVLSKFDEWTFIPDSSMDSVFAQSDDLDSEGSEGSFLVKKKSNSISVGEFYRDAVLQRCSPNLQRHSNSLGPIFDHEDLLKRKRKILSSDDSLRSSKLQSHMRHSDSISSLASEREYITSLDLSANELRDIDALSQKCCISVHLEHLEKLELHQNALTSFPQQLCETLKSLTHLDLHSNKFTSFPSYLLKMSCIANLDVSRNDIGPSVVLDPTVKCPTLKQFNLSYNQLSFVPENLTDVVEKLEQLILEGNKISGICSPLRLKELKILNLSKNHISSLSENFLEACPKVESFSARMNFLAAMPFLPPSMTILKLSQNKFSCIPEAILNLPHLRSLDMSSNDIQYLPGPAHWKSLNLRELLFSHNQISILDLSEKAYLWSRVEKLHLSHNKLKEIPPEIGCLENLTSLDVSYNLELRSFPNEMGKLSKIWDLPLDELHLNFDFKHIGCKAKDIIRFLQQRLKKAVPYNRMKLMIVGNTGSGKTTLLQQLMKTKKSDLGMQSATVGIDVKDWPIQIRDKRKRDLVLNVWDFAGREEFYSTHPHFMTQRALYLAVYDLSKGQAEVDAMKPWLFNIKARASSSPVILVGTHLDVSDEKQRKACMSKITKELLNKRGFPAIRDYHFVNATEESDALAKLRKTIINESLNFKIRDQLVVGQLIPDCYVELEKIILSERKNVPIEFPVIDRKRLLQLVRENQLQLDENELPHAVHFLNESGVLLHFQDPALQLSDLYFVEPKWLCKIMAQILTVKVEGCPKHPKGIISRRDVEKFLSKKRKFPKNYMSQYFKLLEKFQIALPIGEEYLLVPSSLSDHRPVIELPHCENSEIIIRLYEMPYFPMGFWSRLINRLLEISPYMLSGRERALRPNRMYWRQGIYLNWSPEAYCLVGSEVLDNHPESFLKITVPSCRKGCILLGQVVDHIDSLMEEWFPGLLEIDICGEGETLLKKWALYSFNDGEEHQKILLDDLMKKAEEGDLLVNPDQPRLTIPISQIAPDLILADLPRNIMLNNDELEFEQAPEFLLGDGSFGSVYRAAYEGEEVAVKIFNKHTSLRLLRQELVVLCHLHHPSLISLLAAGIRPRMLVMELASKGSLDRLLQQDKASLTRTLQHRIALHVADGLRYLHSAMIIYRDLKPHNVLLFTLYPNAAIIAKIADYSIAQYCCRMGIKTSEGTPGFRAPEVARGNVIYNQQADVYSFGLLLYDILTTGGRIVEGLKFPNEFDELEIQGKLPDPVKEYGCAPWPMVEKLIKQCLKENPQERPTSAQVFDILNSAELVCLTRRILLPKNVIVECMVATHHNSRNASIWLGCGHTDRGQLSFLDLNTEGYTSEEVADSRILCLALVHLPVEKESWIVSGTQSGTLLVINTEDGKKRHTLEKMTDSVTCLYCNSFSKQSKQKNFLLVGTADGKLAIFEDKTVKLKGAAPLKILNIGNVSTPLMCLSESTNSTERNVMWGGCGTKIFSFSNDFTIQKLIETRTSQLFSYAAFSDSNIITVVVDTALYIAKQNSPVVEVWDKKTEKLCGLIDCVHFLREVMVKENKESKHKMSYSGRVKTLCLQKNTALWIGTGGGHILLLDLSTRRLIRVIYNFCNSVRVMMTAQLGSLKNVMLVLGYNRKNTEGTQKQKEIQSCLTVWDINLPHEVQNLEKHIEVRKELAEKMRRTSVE

SMILES: CCC(F)(F)c1cc(N2CCC(S(C)(=O)=O)CC2)nc2sc(C(N)=O)c(N)c12 [BI-605906]
- EC50 [1]: 700 nM

SMILES: CN(C)CCOc1ccc(-c2nc(-c3ccncc3)c(-c3ccc4c(c3)CC/C4=N\O)[nH]2)cc1 [SB590885]
- IC50 [2]: 6100 nM
- IC50 [3]: > 13000 nM
- IC50 [4]: 1100 nM
- IC50 [5]: 28 nM
- IC50 [6]: 190 nM
- IC50 [7]: 58 nM
- IC50 [8]: 11000 nM
- IC50 [9]: 5100 nM
- IC50 [10]: 1500 nM
- IC50 [11]: 290 nM

SMILES: COc1cnccc1Nc1nc(-c2nn(Cc3c(F)cc(OCCO)cc3F)c3ccccc23)ncc1OC
- IC50 [19]: > 10 nM

SMILES: Cc1n[nH]c2ncc(C(=O)N3CCC[C@H]3c3ccc(Cl)cc3)cc12
- IC50 [21]: 9 nM
- IC50 [22]: 32000 nM
- IC50 [23]: 52 nM

SMILES: CNC(=N)NCCC[C@H](NC(=O)[C@H](CC(C)C)NC(=O)NNC(=O)[C@H](Cc1ccccc1)NC(=O)[C@H](CO)NC(=O)[C@H](CC(N)=O)NC(=O)[C@@H](Cc1cccnc1)NC(=O)[C@H](N)Cc1ccc(O)cc1)C(=O)NCC(N)=O [KISS1-543] (H-[dY][d3Pal]NSF[azaGly]L[Arg(Me)]G-NH2)
- EC50 (KiSS-1 receptor): > 10000 nM

The next lines start with the values.

- IC50 [12]: 1600 nM
- EC50 [13]: 200 nM
- IC50 [14]: 1600 nM
- EC50 [15]: 200 nM
- IC50 [16]: 1600 nM
- EC50 [17]: 200 nM
- IC50 [18]: 10500 nM
SMILES: CN1CCC(F)(Cn2cnc(-c3ccc(F)cn3)c2-c2ccnc3[nH]ccc23)CC1

- EC50 [20]: 105 nM
SMILES: Cn1cc(-n2cnc3c(NCc4nc5cc(Cl)c(Cl)cc5[nH]4)nc(N4CCOCC4)nc32)cn1

- IC50 [24]: 190 nM
SMILES: CC(C)(O)[C@H](F)CN1Cc2cc(NC(=O)c3cnn4cccnc34)c(N3CCOCC3)cc2C1=O

- EC50 (Activin receptor type-1): < 100 nM
SMILES: COc1cc(-c2cncc(-c3ccc(N4CCN(C(C)C)CC4)cc3)c2C)cc(F)c1C(N)=O

- IC50 [25]: 21 nM
- IC50 [26]: 103 nM
SMILES: N#Cc1cccc(-c2c[nH]c3ncnc(N4CCOCC4)c23)c1
